This note sets out measurements from ChEMBL document CHEMBL5584354, “Impact of Conjugation of the Reactive Oxygen Species (ROS)-Generating Catalytic Moiety with Membrane-Active Antimicrobial Peptoids: Promoting Multitarget Mechanism and Enhancing Selectivity” (J Med Chem, 2024).

One data set relates to Escherichia coli. As to the kind of experiment: Antibacterial activity against Escherichia coli ATCC 25922 assessed as inhibition of bacterial growth incubated for 24 hrs by broth dilution method. In kind it is functional.
Another data set concerns Staphylococcus aureus. As to the kind of experiment: Antibacterial activity against Staphylococcus aureus ATCC 25923 assessed as inhibition of bacterial growth incubated for 24 hrs by broth dilution method. Type of data set: functional. For orientation: Dilution methods test growth across graded concentrations, often in twofold steps.
The nature of data set [1]: Hemolytic activity in male Sprague-Dawley rat erythrocytes at 25 uM incubated for 1 hr by absorbance based method relative to control. In kind it is toxicity, cell-based, Erythrocyte. As to conditions: read-out: Activity.
A short description of data set [2]: Hemolytic activity in male Sprague-Dawley rat erythrocytes at 50 uM incubated for 1 hr by absorbance based method relative to control. As to conditions: read-out: Activity. Type of data set: toxicity, cell-based, Erythrocyte.
A short description of data set [3]: Hemolytic activity in male Sprague-Dawley rat erythrocytes at 100 uM incubated for 1 hr by absorbance based method relative to control. In kind it is toxicity, cell-based, Erythrocyte. Conditions: read-out: Activity.
The next data set deals with Erythrocyte. As to the kind of experiment: Hemolytic activity in male Sprague-Dawley rat erythrocytes assessed as concentration required for 10% hemolysis incubated for 1 hr by absorbance based method. In kind it is toxicity, cell-based.
Data set [4] is described as follows: Hemolytic activity in male Sprague-Dawley rat erythrocytes assessed as concentration required for 50% hemolysis incubated for 1 hr by absorbance based method. Type of data set: toxicity, cell-based, Erythrocyte.
The nature of data set [5]: Selectivity index, ratio of HC10 for hemolytic activity in male Sprague-Dawley rat erythrocytes to MIC for antibacterial activity against Escherichia coli ATCC 25922. Type of data set: toxicity. Conditions: read-out: Selectivity Index.

Values after ≈ are worked out from the molar mass of the structure shown. Non-standard residues stand in square brackets, D forms with d. Residues, ends and D or L forms follow the SMILES beside them. *: point of attachment. X3 = NC(=O)[C@H](Cc1c[nH]cn1)NC(=O)CNC(=O)[C@@H](N)CN(CCc1c[nH]c2ccccc12)*; X2 = C[C@@H](c1ccccc1)N(C[C@H](N)C(=O)NCC(=O)N[C@@H](Cc1c[nH]cn1)C(N)=O)*; X1 = NC(=O)[C@H](Cc1c[nH]cn1)NC(=O)CNC(=O)[C@@H](N)CN*; Gly(N(CH2)2(3-indolyl)) = O=C(O)CNCCc1c[nH]c2ccccc12; Nspe = C[C@H](NCC(=O)O)c1ccccc1; Nphe = O=C(O)CNCc1ccccc1; Nlys = NCCCCNCC(=O)O

Take `C[C@@H](c1ccccc1)N(CC(=O)N(CCCCN)CC(=O)N(CC(=O)N(CC(=O)N(CCCCN)CC(=O)N(CC(=O)N(CC(=O)N(CCCCN)CC(=O)N(CCc1c[nH]c2ccccc12)CC(=O)N(CCc1c[nH]c2ccccc12)C[C@H](N)C(=O)NCC(=O)N[C@@H](Cc1c[nH]cn1)C(N)=O)[C@@H](C)c1ccccc1)[C@@H](C)c1ccccc1)[C@@H](C)c1ccccc1)[C@@H](C)c1ccccc1)C(=O)CN(C(=O)CNCCCCN)[C@@H](C)c1ccccc1` (H-[Nlys][Nspe][Nspe][Nlys][Nspe][Nspe][Nlys][Nspe][Nspe][Nlys][Gly(N(CH2)2(3-indolyl))]-X3): the values for the MIC in the data set with Escherichia coli and in the data set on Staphylococcus aureus were 6.3 µM (≈ 13.4 µg/mL) and 1.6 µM (≈ 3.39 µg/mL), respectively. The hemolysis at 1 h, 25 µM in data set [1] amounted to 11.1%. Besides, in data set [2], the hemolysis at 1 h, 50 µM came to 20.3%. For the same compound, the hemolysis at 1 h, 100 µM in data set [3] turned out to be 29%. The HC10 in the data set on Erythrocyte amounted to 25.4 µM. In addition, the HC50 (in general, the concentration that lyses half of the red blood cells) at 1 h in data set [4] was greater than 100 µM. The selectivity ratio in data set [5] was found to be 4.

For the compound `C[C@@H](c1ccccc1)N(CC(=O)N(CCCCN)CC(=O)N(CC(=O)N(CC(=O)N(CCCCN)CC(=O)N(CC(=O)N(CC(=O)N(CCCCN)CC(=O)N(CC(=O)N(CC(N)=O)Cc1ccccc1)Cc1ccccc1)Cc1ccccc1)Cc1ccccc1)Cc1ccccc1)Cc1ccccc1)C(=O)CN(Cc1ccccc1)C(=O)CNCCCCN` (H-[Nlys][Nphe][Nspe][Nlys][Nphe][Nphe][Nlys][Nphe][Nphe][Nlys][Nphe][Nphe]-NH2), the MIC (usually the lowest concentration that inhibits growth of the organism) in the data set on Escherichia coli came out at 12.5 µM (≈ 21.5 µg/mL); in the data set with Staphylococcus aureus, 6.3 µM (≈ 10.8 µg/mL). Further, in data set [1], the hemolysis at 1 h, 25 µM was 0.21%. In addition, in data set [2], the hemolysis at 1 h, 50 µM is 3.75%. The hemolysis at 1 h, 100 µM in data set [3] is 13.7%. Further, the HC10 with Erythrocyte stood at 81.3 µM. For the same compound, in data set [4], the HC50 at 1 h was greater than 100 µM. The selectivity ratio in data set [5] was determined as 6.5.

Take `C[C@@H](c1ccccc1)N(CC(N)=O)C(=O)CN(CCCCN)C(=O)CN(Cc1ccccc1)C(=O)CN(Cc1ccccc1)C(=O)CN(CCCCN)C(=O)CN(C(=O)CN(C(=O)CN(CCCCN)C(=O)CN(Cc1ccccc1)C(=O)CN(Cc1ccccc1)C(=O)CN(CCCCN)C(=O)CNC(=O)[C@H](Cc1c[nH]cn1)NC(=O)CNC(=O)CN)[C@@H](C)c1ccccc1)[C@@H](C)c1ccccc1` (H-GGHG[Nlys][Nphe][Nphe][Nlys][Nspe][Nspe][Nlys][Nphe][Nphe][Nlys][Nspe]-NH2): the MIC in the data set with Escherichia coli and with Staphylococcus aureus was 25 µM (≈ 47.8 µg/mL) in each case. Further, in data set [1], the hemolysis at 1 h, 25 µM came out at 0.91%. Further, in data set [2], the hemolysis at 1 h, 50 µM is 6.84%. For the same compound, the hemolysis at 1 h, 100 µM in data set [3] came to 20.8%. Further, in the data set on Erythrocyte, the HC10 was determined as 58.4 µM. Moreover, in data set [4], the HC50 at 1 h was greater than 100 µM. Also, the selectivity ratio in data set [5] amounted to 2.3.

Consider `C[C@@H](c1ccccc1)N(CC(=O)NC[C@H](N)C(=O)NCC(=O)N[C@@H](Cc1c[nH]cn1)C(N)=O)C(=O)CN(CCCCN)C(=O)CN(C(=O)CN(C(=O)CN(CCCCN)C(=O)CN(C(=O)CN(C(=O)CN(CCCCN)C(=O)CN(C(=O)CN(C(=O)CNCCCCN)[C@@H](C)c1ccccc1)[C@@H](C)c1ccccc1)[C@@H](C)c1ccccc1)[C@@H](C)c1ccccc1)[C@@H](C)c1ccccc1)[C@@H](C)c1ccccc1` (H-[Nlys][Nspe][Nspe][Nlys][Nspe][Nspe][Nlys][Nspe][Nspe][Nlys][Nspe]-X1), for which the MIC in the data set with Escherichia coli and in the data set on Staphylococcus aureus was 12.5 µM (≈ 24.2 µg/mL) each time. Moreover, the hemolysis at 1 h, 25 µM in data set [1] came to 0.04%. Besides, the hemolysis at 1 h, 50 µM in data set [2] amounted to 6.22%. In addition, the hemolysis at 1 h, 100 µM in data set [3] stood at 19.1%. Besides, the HC10 in the data set on Erythrocyte is 62.6 µM. The HC50 at 1 h in data set [4] is greater than 100 µM. Also, the selectivity ratio in data set [5] was found to be 5.

For `C[C@@H](c1ccccc1)N(CC(=O)N(CCCCN)CC(=O)N(CC(=O)N(CC(=O)N(CCCCN)CC(=O)N(CC(=O)N(CC(=O)N(CCCCN)CC(=O)N(CCc1c[nH]c2ccccc12)CC(=O)N(CCc1c[nH]c2ccccc12)CC(N)=O)[C@@H](C)c1ccccc1)[C@@H](C)c1ccccc1)[C@@H](C)c1ccccc1)[C@@H](C)c1ccccc1)C(=O)CN(C(=O)CNCCCCN)[C@@H](C)c1ccccc1` (H-[Nlys][Nspe][Nspe][Nlys][Nspe][Nspe][Nlys][Nspe][Nspe][Nlys][Gly(N(CH2)2(3-indolyl))][Gly(N(CH2)2(3-indolyl))]-NH2), the MIC with Escherichia coli stood at 6.3 µM (≈ 12 µg/mL); with Staphylococcus aureus, 1.6 µM (≈ 3.04 µg/mL). For the same compound, the hemolysis at 1 h, 25 µM in data set [1] is 29.9%. In data set [2], the hemolysis at 1 h, 50 µM amounted to 50.7%. Further, in data set [3], the hemolysis at 1 h, 100 µM worked out at 69.4%. In addition, in the data set with Erythrocyte, the HC10 is 7.7 µM. In addition, the HC50 at 1 h in data set [4] came to 63.8 µM. Further, in data set [5], the selectivity ratio stood at 1.2.

With `C[C@@H](c1ccccc1)N(CC(=O)N(CCCCN)CC(=O)N(CC(=O)N(CC(=O)N(CCCCN)CC(=O)N(CC(=O)N(C[C@H](N)C(=O)NCC(=O)N[C@@H](Cc1c[nH]cn1)C(N)=O)[C@@H](C)c1ccccc1)[C@@H](C)c1ccccc1)[C@@H](C)c1ccccc1)[C@@H](C)c1ccccc1)C(=O)CN(C(=O)CN(CCCCN)C(=O)CN(CCc1c[nH]c2ccccc12)C(=O)CN(CCc1c[nH]c2ccccc12)C(=O)CNCCCCN)[C@@H](C)c1ccccc1` (H-[Nlys][Gly(N(CH2)2(3-indolyl))][Gly(N(CH2)2(3-indolyl))][Nlys][Nspe][Nspe][Nlys][Nspe][Nspe][Nlys][Nspe]-X2), the MIC was found to be 25 µM (≈ 53 µg/mL) in the data set on Escherichia coli and 3.1 µM (≈ 6.57 µg/mL) with Staphylococcus aureus. Besides, the hemolysis at 1 h, 25 µM in data set [1] turned out to be 8.35%. Moreover, the hemolysis at 1 h, 50 µM in data set [2] worked out at 14%. Besides, the hemolysis at 1 h, 100 µM in data set [3] was 23.8%. In addition, the HC10 with Erythrocyte came to 31.9 µM. Also, in data set [4], the HC50 at 1 h is greater than 100 µM. Besides, the selectivity ratio in data set [5] was determined as 1.2.

In the case of `C[C@@H](c1ccccc1)N(CC(N)=O)C(=O)CN(CCCCN)C(=O)CN(C(=O)CN(C(=O)CN(CCCCN)C(=O)CN(C(=O)CN(C(=O)CN(CCCCN)C(=O)CN(C(=O)CN(C(=O)CNCCCCN)[C@@H](C)c1ccccc1)[C@@H](C)c1ccccc1)[C@@H](C)c1ccccc1)[C@@H](C)c1ccccc1)[C@@H](C)c1ccccc1)[C@@H](C)c1ccccc1` (H-[Nlys][Nspe][Nspe][Nlys][Nspe][Nspe][Nlys][Nspe][Nspe][Nlys][Nspe]-NH2), the values for the MIC in the data set with Escherichia coli and in the data set with Staphylococcus aureus were 6.3 µM (≈ 10.4 µg/mL) and 1.6 µM (≈ 2.65 µg/mL), respectively. For the same compound, in data set [1], the hemolysis at 1 h, 25 µM came to 40.3%. Moreover, the hemolysis at 1 h, 50 µM in data set [2] came to 97.6%. In data set [3], the hemolysis at 1 h, 100 µM is 96.5%. Besides, the HC10 in the data set on Erythrocyte stood at 9.64 µM. Moreover, the HC50 at 1 h in data set [4] was 28.3 µM. Further, in data set [5], the selectivity ratio was found to be 1.5.

In the case of `C[C@@H](c1ccccc1)N(CC(N)=O)C(=O)CN(CCCCN)C(=O)CN(C(=O)CN(C(=O)CN(CCCCN)C(=O)CN(C(=O)CN(C(=O)CN(CCCCN)C(=O)CN(C(=O)CN(C(=O)CN(CCCCN)C(=O)[C@H](Cc1c[nH]cn1)NC(=O)CNC(=O)CN)[C@@H](C)c1ccccc1)[C@@H](C)c1ccccc1)[C@@H](C)c1ccccc1)[C@@H](C)c1ccccc1)[C@@H](C)c1ccccc1)[C@@H](C)c1ccccc1` (H-GGH[Nlys][Nspe][Nspe][Nlys][Nspe][Nspe][Nlys][Nspe][Nspe][Nlys][Nspe]-NH2), the MIC in the data set on Escherichia coli was determined as 12.5 µM (≈ 23.9 µg/mL); in the data set on Staphylococcus aureus, 6.3 µM (≈ 12 µg/mL). In addition, in data set [1], the hemolysis at 1 h, 25 µM turned out to be 7.95%. Moreover, the hemolysis at 1 h, 50 µM in data set [2] was determined as 32%. For the same compound, the hemolysis at 1 h, 100 µM in data set [3] came out at 61.6%. In the data set with Erythrocyte, the HC10 worked out at 22.9 µM. For the same compound, the HC50 at 1 h in data set [4] turned out to be 81.6 µM. Moreover, the selectivity ratio in data set [5] is 1.8.
